{
  "source": "paper PMC8838850",
  "about": "“Synthesis, Antimicrobial, Anti-Virulence and Anticancer Evaluation of New 5(4H)-Oxazolone-Based Sulfonamides” (Molecules, 2022)",
  "key": {"[1]": {"tested_on": "P. aeruginosa ATCC 47,085", "test": "Biofilm formation assay (crystal violet, light microscopy)", "format": "cell-based, Pseudomonas aeruginosa", "settings": "sub-MIC (½ MIC), crystal violet method", "method": "(§1) Bacterial virulence is regulated via a quorum sensing (QS) system in an inducer/receptor manner. Diminishing bacterial virulence is an advantageous strategy to decrease the development of bacterial resistance. In this direction, anti-virulence and anti-QS activities have been explored in several studies as reviewed. The ability of P. aeruginosa or S. aureus to form biofilms was assayed in the absence or presence of tested compounds at sub-MIC. […] The experiment was conducted in triplicate and a one-way ANOVA test was employed to test the statistical significance using Graphpad Prism 8 software. The results were significant statistically where p values < 0.05. Moreover, microscopic visualization of biofilm under the effect of tested compounds was also performed by light microscopy. Representative images for the inhibitory effects on S. aureus and P. aeruginosa biofilm formation are shown (Figure 3C,D). The microscopic images show a marked reduction in both the thickness of and surface area covered by the biofilms in presence of the tested compound.\n(§2) In order to evaluate the ability of the tested compounds to inhibit the biofilm formation, a strong biofilm forming P. aeruginosa ATCC 47,085 [47, 66] and S. aureus ATCC 6538 [67] strains were used. As described earlier, suspensions of tested strains were prepared from overnight cultures in TSB and their optical densities were adjusted to OD600 of 0.4 (1×10^8 CFU/mL). Aliquots of 10 μL of the suspensions were added to 1 mL amounts of fresh TSB with or without sub-MICs of tested compounds. […] The non-adherent cells were removed, the wells were washed with sterile PBS, and left to dry. The attached biofilm forming cells were fixed with methanol for 25 min and stained with 1% crystal violet for 30 min. The excess dye was washed out and the crystal violet staining adhered biofilm forming cells were eluted by glacial acetic acid (33%). The experiment was conducted in triplicate and the absorbance was measured at 590 nm. The absorbances of tested strains treated with different compounds were expressed as mean ± standard error of percentage change from untreated tested strains control. The percentages of biofilm inhibition were calculated employing the following formula: (absorbance of control—absorbance in presence of tested compounds)/absorbance of control."}, "[2]": {"tested_on": "Pseudomonas aeruginosae ATCC 47085", "test": "MIC by agar dilution", "format": "cell-based, Pseudomonas aeruginosa", "settings": "ATCC47085, 37 °C, 20 h, read-out: Minimum inhibitory concentration (MIC)", "method": "The MICs of the synthesized compound were determined by agar dilution method according to the Clinical Laboratory and Standards Institute Guidelines (CLSI, 2015). Briefly, the tested strains were incubated overnight in tryptic soy broth (TSB) (Oxoid, United Kingdom) and then diluted in Muller–Hinton (MH) broth (Oxoid, United Kingdom) to turbidity approximating to the equivalent of 0.5 McFarland standard. The suspensions were further diluted with sterile saline (1:10) and standardized inoculums (approximately 10^4 CFU per spot) were spotted on the surfaces of MH agar (Oxoid, United Kingdom) plates containing different concentrations of tested compounds and a control plate. The MICs were the lowest concentrations that inhibit growth on the plates after incubation at 37 °C for 20 h."}, "[3]": {"tested_on": "S. aureus ATCC 6538", "test": "Biofilm formation assay (crystal violet, light microscopy)", "format": "cell-based, Staphylococcus aureus", "settings": "sub-MIC (½ MIC), crystal violet method", "method": "as §1, §2"}, "[4]": {"tested_on": "P. aeruginosa", "test": "Assay of hemolytic activity", "format": "cell-based, Pseudomonas aeruginosa", "settings": "sub-MIC", "method": "(§3) The anti-virulence effects of compounds 5, 7 and 10 on hemolytic activity of tested P. aeruginosa and S. aureus strains were assessed as described previously. Optically adjusted bacterial cultures treated or untreated with tested compounds at sub-MIC were centrifuged, and 0.5 mL of supernatants were mixed with fresh 0.8 mL 2% erythrocyte (obtained from experimental animals) suspension in saline, and incubated for 2 h at 37 °C. A complete hemolysis positive control was prepared by addition of sodium dodecyl sulphate (SDS) to erythrocyte suspension, and negative control was prepared by incubation of erythrocytes in LB broth under the same conditions. After centrifugation, the absorbances of the lysed erythrocytes were measured at 540 nm by Biotek spectrofluorometer (Biotek, Winooski, VT, USA). The experiment was performed in triplicate, and the hemolysis of tested compound treated cultures were expressed as mean ± standard error of percentages compared with those obtained from untreated control cultures using the formula: (absorbance in presence or absence of tested compounds—absorbance of negative control)/(absorbance of positive control—absorbance of negative control)."}, "[5]": {"tested_on": "Panc-1", "test": "Caspase-Glo 3/7 apoptosis assay", "format": "cell-based, human", "settings": "½ IC50, IC50 or 2 ×IC50 for 6 h, vs untreated controls", "method": "Caspases play critical roles in apoptosis. The apoptotic effects of selected compounds 5, 7 and 10 on pancreatic cell line Panc-1 were tested by quantification of caspase 3/7 using Caspase-Glo 3/7 assay kit (Promega, Fitchburg, MA, USA) as previously described. Briefly, cells were treated with or without compounds 5, 7 and 10 (½ IC50, IC50, or 2 ×IC50) for 6 h. The prepared reagent Caspase-Glo 3/7 was added in equal volumes to cells, gently mixed, and incubated for 60 min at room temperature. The luminescence was measured, and the activity of caspase was presented as a percentage change from the untreated control."}, "[6]": {"tested_on": "S. aureus", "test": "Assay of hemolytic activity", "format": "cell-based, Staphylococcus aureus", "settings": "sub-MIC", "method": "as §3"}},
  "data": [
    {"compound": "Cc1ccc(S(=O)(=O)Nc2ccccc2C2=N/C(=C/c3ccccc3)C(=O)O2)cc1", "note": "[Compound 9a, (E)-N-(2-(4-Benzylidene-5-oxo-4,5-dihydrooxazol-2-yl)phenyl)-4-methylbenzenesulfonamide]", "values": [
      {"measurement": "melting point", "result": "214 to 216", "unit": "°C"},
      {"measurement": "Inhibition of biofilm formation", "setting": "[1]", "result": "highest abilities to inhibit biofilm formation"},
      {"measurement": "MIC", "setting": "[2]", "result": 8, "unit": "µg/mL"},
      {"measurement": "Inhibition of biofilm formation", "setting": "[3]", "result": "highest abilities to inhibit biofilm formation"},
      {"measurement": "Hemolytic activity", "setting": "[4]", "result": "significantly diminished the hemolytic activity"},
      {"measurement": "Apoptotic effect, caspase 3/7 levels", "setting": "[5]", "result": "triggered apoptosis through increasing the amounts of activated caspases 3/7"},
      {"measurement": "Hemolytic activity", "setting": "[6]", "result": "significantly diminished the hemolytic activity"}
    ]},
    {"compound": "Cc1ccc(S(=O)(=O)Nc2ccccc2C2=N/C(=C/c3ccc([N+](=O)[O-])cc3)C(=O)O2)cc1", "note": "[Compound 9f, (E)-4-Methyl-N-(2-(4-(4-nitrobenzylidene)-5-oxo-4,5-dihydrooxazol-2-yl)phenyl)benzenesulfonamide]", "values": [
      {"measurement": "melting point", "result": "250 to 252", "unit": "°C"},
      {"measurement": "Inhibition of biofilm formation", "setting": "[1]", "result": "highest abilities to inhibit biofilm formation"},
      {"measurement": "MIC", "setting": "[2]", "result": 4, "unit": "µg/mL"},
      {"measurement": "Inhibition of biofilm formation", "setting": "[3]", "result": "highest abilities to inhibit biofilm formation"},
      {"measurement": "Hemolytic activity", "setting": "[4]", "result": "significantly diminished the hemolytic activity"},
      {"measurement": "Apoptotic effect, caspase 3/7 levels", "setting": "[5]", "result": "triggered apoptosis through increasing the amounts of activated caspases 3/7"},
      {"measurement": "Hemolytic activity", "setting": "[6]", "result": "significantly diminished the hemolytic activity"}
    ]},
    {"compound": "COc1ccc(/C=C2/N=C(c3ccccc3NS(=O)(=O)c3ccc(C)cc3)OC2=O)cc1", "note": "[Compound 9b, (E)-N-(2-(4-(4-Methoxybenzylidene)-5-oxo-4,5-dihydrooxazol-2-yl)phenyl)-4-methylbenzenesulfonamide]", "values": [
      {"measurement": "Inhibition of biofilm formation", "setting": "[1]", "result": "highest abilities to inhibit biofilm formation"},
      {"measurement": "MIC", "setting": "[2]", "result": 4, "unit": "µg/mL"},
      {"measurement": "Inhibition of biofilm formation", "setting": "[3]", "result": "highest abilities to inhibit biofilm formation"},
      {"measurement": "Hemolytic activity", "setting": "[4]", "result": "significantly diminished the hemolytic activity"},
      {"measurement": "Apoptotic effect, caspase 3/7 levels", "setting": "[5]", "result": "triggered apoptosis through increasing the amounts of activated caspases 3/7"},
      {"measurement": "Hemolytic activity", "setting": "[6]", "result": "significantly diminished the hemolytic activity"}
    ]}
  ]
}
